Literature values, collected in patent US7192914B1, “Prevention of atherosclerosis and undesired blood clotting by reducing von Willebrand factor” (The Regents of the University of California, priority 1999, dated 2007).

Test system: human endothelial cells
Settings: human endothelial cells treated with tunicamycin; Wagner et al. (1986) J. Cell Biol. 102: 1320-4

tunicamycin
effect on secreted vWF: absence of secreted vWF
